Test results published in patent US8722628B2, “Autophagy-inducing peptide” (priority 2012, dated 2014).

Tested on: H1975 cells
Conditions: EGFR T790M

## C#Cc1cccc(Nc2ncnc3cc(OCCOC)c(OCCOC)cc23)c1 [Erlotinib]
  autophagy induction: fails to induce autophagy
  cell killing: fails to kill the cells
